These are literature values, as cited in patent publication US11737967B2, “Increasing the stability of agents for treating keratin material” (Henkel AG & Co. KGaA, priority 2019, dated 2023).

For this series the following is noted: 25° C.
As to `CCN(Cc1cccc(S(=O)(=O)[O-])c1)c1ccc(C(=C2C=CC(=[N+](CC)Cc3cccc(S(=O)(=O)[O-])c3)C=C2)c2ccccc2S(=O)(=O)[O-])cc1.[Na+].[Na+]` [Acid Blue 9], the solubility in water result is reported as “more than 20 % by weight”.
In the case of `Nc1cc(S(=O)(=O)[O-])cc2cc(S(=O)(=O)[O-])c(N=Nc3ccccc3)c(O)c12.[Na+].[Na+]` [Acid Red 33, diantrium salt of 5-amino-4-hydroxy-3-(phenylazo)-naphthalene-2,7-disulphonate], the solubility in water is 2500 µg/mL.
On to `O=S(=O)([O-])c1ccc(N=Nc2c(O)ccc3ccccc23)cc1.[Na+]` [Acid Orange 7, sodium salt of 4-[(2-hydroxy-1-naphthyl)azo]benzene sulphonate], for which the solubility in water result is “more than 7 g/L”.
Consider `O=C([O-])c1c(Cl)c(Cl)c(Cl)c(Cl)c1-c1c2c(Br)cc(=O)c(Br)c-2oc2c(Br)c(O)cc(Br)c12.O=C([O-])c1c(Cl)c(Cl)c(Cl)c(Cl)c1-c1c2c(Br)cc(=O)c(Br)c-2oc2c(Br)c(O)cc(Br)c12.[Na+].[Na+]` [Acid Red 92, disodium salt of 3,4,5,6-tetrachloro-2-(1,4,5,8-tetrabromo-6-hydroxy-3-oxoxanthen-9-yl)benzoic acid], for which the solubility in water entry is “greater than 10 g/L”.
As for `O=C([O-])C1=NN(c2ccc(S(=O)(=O)[O-])cc2)C(=O)C1N=Nc1ccc(S(=O)(=O)[O-])cc1.[Na+].[Na+].[Na+]` (centres unmarked) [Acid Yellow 23, trisodium salt of 4,5-dihydro-5-oxo-1-(4-sulfophenyl)-4-((4-sulfophenyl)azo)-1H-pyrazole-3-carboxylic acid], the “solubility in water” value is “highly soluble”.
